Patent US10689367B2, “Triazole pyridyl compounds as agonists of the APJ receptor” (AMGEN INC., priority 2016, dated 2020)

What follows are compounds tested against human APJ receptor (Homo sapiens (Human), UniProt P35414) (assay: [35S]GTPγS binding assay on membranes from CHO cells stably expressing human APJ receptor). Conditions: membranes of CHO cells stably expressing human APJ receptor, read-out: Activity hAPJ SPA EC50 IP.
human APJ receptor, sequence (P35414 whole entry): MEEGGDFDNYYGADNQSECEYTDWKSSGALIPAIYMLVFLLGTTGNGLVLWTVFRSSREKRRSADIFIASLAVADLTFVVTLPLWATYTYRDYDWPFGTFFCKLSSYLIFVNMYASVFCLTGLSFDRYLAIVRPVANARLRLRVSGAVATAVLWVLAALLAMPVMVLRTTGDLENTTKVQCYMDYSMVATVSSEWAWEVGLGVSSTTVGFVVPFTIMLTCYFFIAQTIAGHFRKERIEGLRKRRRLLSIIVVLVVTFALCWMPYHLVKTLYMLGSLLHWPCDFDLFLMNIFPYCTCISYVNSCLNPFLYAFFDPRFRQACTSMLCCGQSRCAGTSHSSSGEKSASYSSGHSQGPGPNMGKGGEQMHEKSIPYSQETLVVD
Format: biochemical
In short: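 [35S]GTPγS binding measured on membranes from CHO cells stably expressing FLAG-tagged human APJ, with GDP, MgCl2 and NaCl levels optimized beforehand. Incubation 90 min at RT, imager read-out; EC50 from non-linear regression, averaged over several independent experiments.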
`COCC(COC)n1c(NS(=O)(=O)[C@@H](C)[C@H](OC)c2cnc(OC)cn2)nnc1-c1cccc(OC)n1` [Example 101.0] was tested, and the EC50 was 8.9 nM.
`COCCn1c(NS(=O)(=O)[C@H](C)[C@@H](C)c2ncc(Cl)cn2)nnc1-c1cccnc1` (stereo in doubt) [Example 18.0, (2R,3S)-3-(5-chloro-2-pyrimidinyl)-N-(4-(2-methoxyethyl)-5-(3-pyridinyl)-4H-1,2,4-triazol-3-yl)-2-butanesulfonamide] was tested, and the EC50 was 250 nM.
`COC[C@@H](C)n1c(NS(=O)(=O)[C@@H](C)[C@H](C)c2ncc(Cl)cn2)nnc1-c1cccnc1` (single isomer, unassigned) [Example 52.0] was tested, and the EC50 was 16 nM.
`COC[C@@H](C)n1c(NS(=O)(=O)[C@@H](C)[C@@H](OC(C)C)c2ncc(Cl)cn2)nnc1-c1cccc(OC)n1` [Example 178.0, (1S,2S)-1-(5-chloro-2-pyrimidinyl)-N-(4-((2R)-1-methoxy-2-propanyl)-5-(6-methoxy-2-pyridinyl)-4H-1,2,4-triazol-3-yl)-1-(2-propanyloxy)-2-propanesulfonamide] showed an EC50 of 0.32 nM.
`COc1cccc(-c2nnc(NS(=O)(=O)[C@@H](C)[C@H](OC)c3ncc(Cl)cn3)n2[C@H](C)c2cncc(F)c2)n1` (single isomer, unassigned) [Example 348.0, (1R,2S)-1-(5-chloropyrimidin-2-yl)-N-(4-((R)-1-(5-fluoropyridin-3-yl)ethyl)-5-(6-methoxypyridin-2-yl)-4H-1,2,4-triazol-3-yl)-1-methoxypropane-2-sulfonamide or (1R,2S)-1-(5-chloropyrimidin-2-yl)-N-(4-((S)-1-(5-fluoropyridin-3-yl)ethyl)-5-(6-methoxypyridin-2-yl)-4H-1,2,4-triazol-3-yl)-1-methoxypropane-2-sulfonamide] was tested, and the EC50 was 1.34 nM.
Work on `COc1cccc(-c2nnc(NS(=O)(=O)[C@@H](C)[C@H](OC)c3ncc(C)cn3)n2C2CC2)n1` [Example 120.0] yielded an EC50 of 24 nM.
`COc1cccc(-c2nnc(NS(=O)(=O)[C@@H](C)[C@H](OC)c3ncc(Cl)cn3)n2[C@@H]2CCC23CCC3)n1` (stereo in doubt) [Example 56.0] gave an EC50 of 1.9 nM.
Compound `COc1cccc(-c2nnc(NS(=O)(=O)[C@@H](C)[C@H](C)c3ncc(Cl)cn3)n2[C@@H](C)c2nc(C)no2)n1` (single isomer, unassigned) [Example 246.0, (2S,3R)-3-(5-chloro-2-pyrimidinyl)-N-(5-(6-methoxy-2-pyridinyl)-4-((1R)-1-(5-methyl-1,2,4-oxadiazol-3-yl)ethyl)-4H-1,2,4-triazol-3-yl)-2-butanesulfonamide or (2S,3R)-3-(5-chloro-2-pyrimidinyl)-N-(5-(6-methoxy-2-pyridinyl)-4-((1S)-1-(5-methyl-1,2,4-oxadiazol-3-yl)ethyl)-4H-1,2,4-triazol-3-yl)-2-butanesulfonamide] has an EC50 of 3.4 nM.
Compound `COc1cccc(-c2nnc(NS(=O)(=O)[C@@H](C)[C@H](C)c3ncc(Cl)cn3)n2[C@@H](C)c2ccon2)n1` (racemic) [Example 268.0, (2S,3R)-3-(5-chloropyrimidin-2-yl)-N-(4-((R)-1-(isoxazol-3-yl)ethyl)-5-(6-methoxypyridin-2-yl)-4H-1,2,4-triazol-3-yl)butane-2-sulfonamide or (2S,3R)-3-(5-chloropyrimidin-2-yl)-N-(4-((S)-1-(isoxazol-3-yl)ethyl)-5-(6-methoxypyridin-2-yl)-4H-1,2,4-triazol-3-yl)butane-2-sulfonamide] has an EC50 of 2.7 nM.
Work on `COc1cccc(-c2nnc(NS(=O)(=O)[C@@H](C)[C@H](C)c3ncc(Cl)cn3)n2[C@@H](C)c2c(C)noc2C)n1` (racemic) [Example 313.0, (2S,3R)-3-(5-chloropyrimidin-2-yl)-N-(4-((R)-1-(3,5-dimethylisoxazol-4-yl)ethyl)-5-(6-methoxypyridin-2-yl)-4H-1,2,4-triazol-3-yl)butane-2-sulfonamide or (2S,3R)-3-(5-chloropyrimidin-2-yl)-N-(4-((S)-1-(3,5-dimethylisoxazol-4-yl)ethyl)-5-(6-methoxypyridin-2-yl)-4H-1,2,4-triazol-3-yl)butane-2-sulfonamide] yielded an EC50 of 21 nM.
In the case of `COc1cccc(-c2nnc(NS(=O)(=O)[C@@H](C)[C@H](OC)c3ncc(Cl)cn3)n2[C@H]2C[C@H](OC)C2)n1` [Example 181.0, (1R,2S)-1-(5-chloro-2-pyrimidinyl)-1-methoxy-N-(4-(trans-3-methoxycyclobutyl)-5-(6-methoxy-2-pyridinyl)-4H-1,2,4-triazol-3-yl)-2-propanesulfonamide], the EC50 is reported as 190 nM.
`COc1ccc(Cn2c(NS(=O)(=O)[C@@H](C)[C@H](OC)c3ncc(Cl)cn3)nnc2-c2cccc(OC)n2)cc1` [Example 170.0, (1R,2S)-1-(5-chloropyrimidin-2-yl)-1-methoxy-N-(4-(4-methoxybenzyl)-5-(6-methoxypyridin-2-yl)-4H-1,2,4-triazol-3-yl)propane-2-sulfonamide] gave an EC50 of 0.76 nM.
`COc1cccc(-c2nnc(NS(=O)(=O)[C@@H](C)[C@@H](OC(C)C)c3ncc(C)cn3)n2[C@@H](C)c2ncc(C)o2)n1` (single isomer, unassigned) [Example 241.0, (1S,2S)-N-(5-(6-methoxy-2-pyridinyl)-4-((1S)-1-(5-methyl-1,3-oxazol-2-yl)ethyl)-4H-1,2,4-triazol-3-yl)-1-(5-methyl-2-pyrimidinyl)-1-(2-propanyloxy)-2-propanesulfonamide or (1S,2S)-N-(5-(6-methoxy-2-pyridinyl)-4-((1R)-1-(5-methyl-1,3-oxazol-2-yl)ethyl)-4H-1,2,4-triazol-3-yl)-1-(5-methyl-2-pyrimidinyl)-1-(2-propanyloxy)-2-propanesulfonamide] was tested, and the EC50 was 7.4 nM.
Work on `CC[C@H](c1c(C)noc1C)n1c(NS(=O)(=O)[C@@H](C)[C@H](OC)c2cnc(C)cn2)nnc1-c1cccc(OC)n1` (mixture of isomers) [Example 208.0, (1R,2S)-N-(4-((1R)-1-(3,5-dimethyl-1,2-oxazol-4-yl)propyl)-5-(6-methoxy-2-pyridinyl)-4H-1,2,4-triazol-3-yl)-1-methoxy-1-(5-methyl-2-pyrazinyl)-2-propanesulfonamide and (1R,2S)-N-(4-((1S)-1-(3,5-dimethyl-1,2-oxazol-4-yl)propyl)-5-(6-methoxy-2-pyridinyl)-4H-1,2,4-triazol-3-yl)-1-methoxy-1-(5-methyl-2-pyrazinyl)-2-propanesulfonamide] yielded an EC50 of 42 nM.
In the case of `CCC(CC)n1c(NS(=O)(=O)[C@@H](C)[C@H](OC)c2ncc(Cl)cn2)nnc1-c1cccnc1` [Example 111.0], the EC50 is reported as 27 nM.
In the case of `COc1cccc(-c2nnc(NS(=O)(=O)[C@@H](C)[C@H](C)c3ncc(Cl)cn3)n2[C@H](C)c2cnn(C)c2)n1` (racemic) [Example 297.0, (2S,3R)-3-(5-chloropyrimidin-2-yl)-N-(5-(6-methoxypyridin-2-yl)-4-((R)-1-(1-methyl-1H-pyrazol-4-yl)ethyl)-4H-1,2,4-triazol-3-yl)butane-2-sulfonamide or (2S,3R)-3-(5-chloropyrimidin-2-yl)-N-(5-(6-methoxypyridin-2-yl)-4-((S)-1-(1-methyl-1H-pyrazol-4-yl)ethyl)-4H-1,2,4-triazol-3-yl)butane-2-sulfonamide], the EC50 is reported as 4.3 nM.
With `COc1cccc(-c2nnc(NS(=O)(=O)[C@@H](C)[C@H](OC)c3ncc(Cl)cn3)n2Cc2ccon2)n1` [Example 76.0] the EC50 was 3.3 nM.
`COCC1(n2c(NS(=O)(=O)[C@@H](C)[C@H](OC)c3ncc(Cl)cn3)nnc2-c2cccnc2)CC1` [Example 60.0] showed an EC50 of 1.2 nM.
For `COCCOc1cccc(-c2nnc(NS(=O)(=O)[C@@H](C)[C@H](OC)c3ncc(Cl)cn3)n2C(COC)COC)n1` [Example 42.0], the EC50 was 17 nM.
Compound `CC[C@H]([C@@H]1CCCCO1)n1c(NS(=O)(=O)[C@@H](C)[C@H](OC)c2ncc(Cl)cn2)nnc1-c1cccc(OC)n1` (single isomer, unassigned) [Example 326.0] has an EC50 of 0.14 nM.
Compound `CO[C@H](c1ncc(Cl)cn1)[C@H](C)S(=O)(=O)Nc1nnc(-c2cccc(C)n2)n1C1(C)CCC1` [Example 59.0] has an EC50 of 28 nM.
In the case of `CO[C@H](c1ncc(Cl)cn1)[C@H](C)S(=O)(=O)Nc1nnc(-c2cncc(C)c2)n1C1CC12CC2` (mixture of isomers) [Example 150.0, (1R,2S)-1-(5-Chloropyrimidin-2-yl)-1-methoxy-N-(5-(5-methylpyridin-3-yl)-4-((R)-spiro[2.2]pentan-1-yl)-4H-1,2,4-triazol-3-yl)propane-2-sulfonamide and (1R,2S)-1-(5-chloropyrimidin-2-yl)-1-methoxy-N-(5-(5-methylpyridin-3-yl)-4-((S)-spiro[2.2]pentan-1-yl)-4H-1,2,4-triazol-3-yl)propane-2-sulfonamide], the EC50 is reported as 100 nM.
In the case of `COCC1(n2c(NS(=O)(=O)[C@@H](C)[C@@H](OC(C)C)c3ncc(C)cn3)nnc2-c2cccc(OC)n2)CC1` [Example 64.0], the EC50 is reported as 0.16 nM.
`CC[C@H]([C@@H]1CCCCO1)n1c(NS(=O)(=O)[C@@H](C)[C@H](OC)c2ncc(C)cn2)nnc1-c1cncc(C)c1` (single isomer, unassigned) [Example 335.0] was tested, and the EC50 was 14 nM.
`CO[C@H](c1ncc(Cl)cn1)[C@H](C)S(=O)(=O)Nc1nnc(-c2ccccn2)n1C(C)C` [Example 136.0, (1R,2S)-1-(5-chloro-2-pyrimidinyl)-1-methoxy-N-(4-(2-propanyl)-5-(2-pyridinyl)-4H-1,2,4-triazol-3-yl)-2-propanesulfonamide] was tested, and the EC50 was 57 nM.
`CC[C@H]([C@@H]1CCCCO1)n1c(NS(=O)(=O)[C@@H](C)[C@H](OC)c2ncc(Cl)cn2)nnc1-c1cccc(OC)n1` (single isomer, unassigned) [Example 325.0] showed an EC50 of 0.33 nM.
Work on `COc1cccc(-c2nnc(NS(=O)(=O)[C@@H](C)[C@H](OC)c3ncc(Cl)cn3)n2C[C@@H]2COCCO2)n1` (racemic) [Example 303.0, (1R,2S)-N-(4-(((R)-1,4-dioxan-2-yl)methyl)-5-(6-methoxypyridin-2-yl)-4H-1,2,4-triazol-3-yl)-1-(5-chloropyrimidin-2-yl)-1-methoxypropane-2-sulfonamide or (1R,2S)-N-(4-(((S)-1,4-dioxan-2-yl)methyl)-5-(6-methoxypyridin-2-yl)-4H-1,2,4-triazol-3-yl)-1-(5-chloropyrimidin-2-yl)-1-methoxypropane-2-sulfonamide] yielded an EC50 of 27 nM.
